The data set deals with HepG2 cells. In kind it is cell-based. The conditions noted are these: HepG2, amounts used for photocrosslinking.

Experimental: Cell culture and viability assays in the presence of photopolymerizing agents. HepG2 cells (American Type Culture Collection, Manassas, Va.) were cultured in 175 cm^2 flasks (Fisher, Springfield, N.J.) and were passaged preconfluency no more than 13 times. The cells were maintained in minimal essential medium (MEM; Gibco, Grand Island, N.Y.) supplemented with 5% fetal bovine serum, 100 ug/mL penicillin, and 100 ug/mL streptomycin and incubated at 5% CO2 and 37° C. The cells to be incorporated into hydrogels were added to the prepolymer solution containing initiator and were mixed gently prior to UV exposure.
In order to explore the effects of photoinitiator and UV exposure on cell death, individual components were tested in HepG2 cultures. 3.0×10^5 cells were seeded in six-well culture dishes and allowed to proliferate until near confluency. A solution of 300 mg/mL of 2,2-dimethyl-2-phenyl-acetophenone (Aldrich) in 1-vinyl-2-pyrrolidinone (Sigma) was added to MEM in concentrations of 0, 3, 5, and 10 ul/ml. […] Cell viability was measured by an Mi viability assay, which forms a purple precipitate by cleavage of the tetrazolium ring by mitochondrial dehydrogenase enzymes. […] The absorbance was measured at 570 nm with a SpectraMax Plus spectrophotometer (Molecular Devices, Sunnyvale, Calif.). […]

In the case of `C=CN1CCCC1=O` [1-vinyl-2-pyrrolidinone], the “toxicity to cells of initiator solvent alone” value is reported as “not found to be toxic”.
